Experiments:
Nalm-6 SF3B1^K700K cells [1] = experiment: Splice variant levels in Nalm-6 isogenic cells by NanoString assay; type: cell-based, human; details: 15 nM
Procedure: (§1) A NanoString® assay was developed to quantify aberrant and canonical splice variants and was validated using the same cell panel. For the NanoString® assay, 750 ng of purified total RNA was used as template for the nCounter® (NanoString Technologies®) expression assay using a custom panel of NanoString® probes. The sample preparation was set up as recommended (NanoString® Technologies protocol no. C-0003-02) for an overnight hybridization at 65° C. The following day, samples were processed through the automated nCounter® Analysis System Prep Station using the high sensitivity protocol (NanoString® Technologies protocol no. MAN-00029-05) followed by processing through the nCounter® Analysis System Digital Analyzer (protocol no. MAN-00021-01) using 1150 FOVs for detection. Data was downloaded and analyzed for quality control metrics and normalization using the nSolver™ Analysis Software (NanoString Technologies®). The data was first normalized for lane-to-lane variation using the positive assay controls provided by the manufacturer (NanoString® positive controls A-F [containing in vitro transcribed RNA transcripts at concentrations of 128 fM, 32 fM, 8 fM, 2 fM, 0.5 fM, and 0.125 fM, each pre-mixed with NanoString® Reporter CodeSet probes])). Any samples with normalization factors <0.3 and >3 were not considered for further analysis. This was followed by content normalization using the geo-mean of GAPDH, EEF1A1 and RPLP0. All samples were within the recommended 0.1-10 normalization factor range. Each normalized value was then checked to ensure that it was at least two standard deviations higher than the average of background signal recorded for that lane. Any value below that was considered below detection limit. These normalized values were taken for further bioinformatics and statistical analysis.
(§2) To investigate the broader activity of E7107 on normal and aberrant splicing, RNA from Nalm-6 isogenic cells treated for two and six hours at 15 nM was analyzed by NanoString®. […] Normal and aberrant splicing in the isogenic cell lines was also analyzed by RNA-Seq following treatment with one of additional compounds having formulas 1 or 2. […] For the RNA-Seq analysis, cells were washed with PBS after treatment with E7107 or other test compound, and RNA was isolated using PureLink (Life Technology) as reported in the manufacturer's manual. cDNA library preparation, sequencing and raw read filtering was performed as described in Ren, S. et al. “RNA-Seq analysis of prostate cancer in the Chinese population identifies recurrent gene fusions, cancer-associated long noncoding RNAs and aberrant alternative splicings.” Cell Res 22, 806-821, doi:10.1038/cr.2012.30 (2012).

Nalm-6 SF3B1^K700E cells [2] = experiment: as above; type: cell-based, human; details: 15 nM
Procedure: as §1, §2

[3] = system: neomorphic SF3B1^MUT CLL patient samples; experiment: Splicing inhibition in CLL patient samples in vitro by RNA-Seq; type: cell-based, human; details: 10 nM, 6 hours
Procedure: (§3) The ability of E7107 to inhibit splicing in CLL patient samples in vitro was determined by isolating RNA from samples of E7107-treated patient cells treated for 6 hours with E7107 at 10 nM and performing RNA-Seq analysis. To do so, cells were washed with PBS after treatment with E7107, and RNA was isolated using PureLink (Life Technology) as reported in the manufacturer's manual. cDNA library preparation, sequencing and raw read filtering was performed as described in Ren, S. et al. “RNA-Seq analysis of prostate cancer in the Chinese population identifies recurrent gene fusions, cancer-associated long noncoding RNAs and aberrant alternative splicings.” Cell Res 22, 806-821, doi:10.1038/cr.2012.30 (2012).

[4] = system: SF3B1^WT CLL patient samples; experiment: as above; type: cell-based, human; details: 10 nM, 6 hours
Procedure: as §3

[5] = system: Nalm-6 SF3B1^K700E xenograft tumors; experiment: Splicing modulation and compound concentration in xenograft tumors after single IV dose; type: in vivo, CB17-SCID mice; details: single IV dose 5 mg/kg
Procedure: (§4) In addition, the ability of E7107 to modulate splicing was tested in mice bearing human tumor xenografts. Nalm-6 isogenic xenograft mice were generated by subcutaneously implanting 10×10^6 Nalm-6 isogenic cells into the flank of CB17-SCID mice, and tumors from these mice were collected at different timepoints after a single intravenous (IV) dose of E7107 (5 mg/kg) and analyzed to determine compound concentrations and splicing regulation. RNA was isolated from the tumors using RiboPure™ RNA purification kit (Ambion®) and used for NanoString® assay or qPCR. The RNA was retrotranscribed according to the instructions of the SuperScript® VILO™ cDNA synthesis kit (Invitrogen™) and 0.04 μl of cDNA was used for qPCR. qPCR for pre-mRNA EIF4A1 and mature mRNA […] and pharmacokinetic evaluation were performed as described in Eskens, F. A. et al. “Phase I pharmacokinetic and pharmacodynamic study of the first-in-class spliceosome inhibitor E7107 in patients with advanced solid tumors.” Clin Cancer Res 19, 6296-6304, doi:10.1158/1078-0432.CCR-13-0485 (2013). The primers and probes used for ZDHHC16 were the following: FW 5′-[…] (SEQ ID NO: 1194), RW 5′ […] (SEQ ID NO: 1195) and probe 5′ FAM […] (SEQ ID NO: 1196). The primers and probes used for COASY were the following: FW 5′-CGGTGGTGCAAGTGGAA (SEQ ID NO: 1197), RW 5′-[…] (SEQ ID NO: 1198) and probe 5′-FAM-[…] (SEQ ID NO: 1199).

[6] = system: Nalm-6 SF3B1^K700K xenograft tumors; experiment: as above; type: in vivo, CB17-SCID mice; details: single IV dose 5 mg/kg
Procedure: as §4

Nalm-6 SF3B1^K700K cells [7] = experiment: Normal and aberrant splicing in Nalm-6 isogenic cells by qPCR; type: cell-based, human; details: increasing concentrations, six hours
Procedure: (§5) E7107 was also tested in vitro in Nalm-6 isogenic cell lines for the ability to modulate normal and aberrant splicing induced by SF3B1^WT and SF3B1^K700E protein. Nalm-6 isogenic cells were treated with increasing concentrations of E7107 for six hours and RNA was analyzed by qPCR.
as §4

Nalm-6 SF3B1^K700E cells [8] = experiment: as above; type: cell-based, human; details: increasing concentrations, six hours
Procedure: as §5, §4

CC[C@H](O)[C@@H](C)[C@H]1O[C@@H]1C[C@@](C)(O)/C=C/C=C(\C)[C@H]1OC(=O)C[C@H](O)CC[C@@](C)(O)[C@@H](OC(=O)N2CCN(C3CCCCCC3)CC2)/C=C/[C@@H]1C [Compound E7107]
inhibition of splicing (all isoforms quantified) (Nalm-6 SF3B1^K700K cells [1]; six hours): clear inhibition | inhibition of splicing (gene, WT-associated and MUT-associated isoform expression) (Nalm-6 SF3B1^K700K cells [1]; two hours): partial inhibition of splicing | inhibition of splicing (all isoforms quantified) (Nalm-6 SF3B1^K700E cells [2]; six hours): clear inhibition | inhibition of splicing (gene, WT-associated and MUT-associated isoform expression) (Nalm-6 SF3B1^K700E cells [2]; two hours): partial inhibition of splicing | expression of canonical splice isoforms [3]: inhibited the expression of canonical splice isoforms | aberrant splicing ([3]; all samples carrying neomorphic SF3B1 mutations): able to modulate aberrant splicing | expression of canonical splice isoforms [4]: inhibited the expression of canonical splice isoforms | abnormal splicing of COASY and ZDHHC16 in tumor, qPCR [5]: downregulated abnormal splicing | canonical splicing in tumor (EIF4A1 pre-mRNA, SLC25A19 mature mRNA), qPCR [5]: modulated canonical splicing | canonical and aberrant splice mRNA isoforms in tumor, NanoString ([5]; timepoints after dose): downregulated by E7107 as early as one hour following administration | canonical splicing in tumor (EIF4A1 pre-mRNA, SLC25A19 mature mRNA), qPCR [6]: modulated canonical splicing | canonical and aberrant splice mRNA isoforms in tumor, NanoString ([6]; timepoints after dose): downregulated by E7107 as early as one hour following administration | EIF4A1 pre-mRNA level (canonical splicing) (Nalm-6 SF3B1^K700K cells [7]): accumulation of pre-mRNA for EIF4A1 | SLC25A19 mature mRNA level (canonical splicing) (Nalm-6 SF3B1^K700K cells [7]): downregulation of the mature mRNA SLC25A19 | EIF4A1 pre-mRNA level (canonical splicing) (Nalm-6 SF3B1^K700E cells [8]): accumulation of pre-mRNA for EIF4A1 | SLC25A19 mature mRNA level (canonical splicing) (Nalm-6 SF3B1^K700E cells [8]): downregulation of the mature mRNA SLC25A19 | mature mRNA of abnormally spliced isoform of COASY (Nalm-6 SF3B1^K700E cells [8]): downregulation of mature mRNA | mature mRNA of abnormally spliced isoform of ZDHHC16 (Nalm-6 SF3B1^K700E cells [8]): downregulation of mature mRNA
